Measured values taken from patent US11213536B2, “Acylated compounds for the treatment of ocular pathologies” (CONSEJO SUPERIOR DE INVESTIGACIONES CIENTÍFICAS, priority 2016, dated 2022).
Marks after values point to notes of the source that are not given here.

Experiments:
[1] = tested on: RAW 264.7 macrophages; experiment: Inflammation parameters (TNF-α, NO, IL-6) in supernatant of LPS-stimulated RAW 264.7 macrophages; type: cell-based; settings: 10 μM, LPS 1 μg/ml, 24 h
Procedure: To determine the production of cytokines, 5×10^5 RAW 264.7 macrophages were seeded in 24-well plates (0.5 ml per well). The compounds to be tested were then added (10 μM), and the macrophages were either stimulated or not through the addition of LPS (1 μg/ml) to the culture medium. After 24 hours, the levels of IL-6 and TNF-α were measured in the supernatants by ELISA using the capture and biotinylated antibodies from BD PharMingen and PrepoTech (Gonzalez-Rey et al., Gut. 2009; 58:929-939; Sánchez et al., Stem Cells. 2011; 29:251-262). The levels of NO in the supernatants at 24 hours were measured indirectly by determining the nitrite concentration in the medium using the Griess reagent (Anderson et al., Gut. 2013; 62:1131-1141). A minimum of two independent experiments and three replicates per experiment were performed for each measured value. The values are expressed as the mean±standard deviation.
In the previous assay, the levels of various inflammation parameters were measured (TNF-α, NO, and IL-6) by ELISA after treatment with RES or with compound 2 (FIGS. 3, 4, and 5).

[2] = Zebrafish embryo toxicity assay; settings: in vivo, other: incubation of embryos with the compound, 0 to 96 hpf
Procedure: Twenty zebrafish embryos were incubated for each concentration of compound to be tested (1 to 4). The concentrations used of each compound are 0.1 μM, 1 μM, 10 μM, 100 μM and 1 mM. The incubation period goes from 0 to 96 hours post fertilization (hpf). A negative control of 1% DMSO and a positive control of N, N-diethylaminobenzaldehyde (DEAB) are included. After the incubation period, the LC50 (lethal dose for 50% of the animals) is calculated.

[3] = tested on: Prpf31^A216P/+ (KI) mice; experiment: Prpf31 A216P/+ mice RPE degeneration model, eye drops and light damage; type: in vivo, mouse; settings: for Fundus Normal (%) / Fundus Abnormal (number) / Fundus Normal (number) / Fundus Abnormal (%): 2 mM eye drops daily for two and a half months, 5,000 lux 3 h; for Fundus Abnormal (number) / Fundus Normal (number): n=10; for number of positive responses in optomotor test (visual acuity): 6 spatial frequencies 0.031-0.272 cycles/degree, vs control KI; for thickness of the retina (OCT): vs control KI group; for statistical association with normal fundi vs control KI group: chi-square / Fisher's exact test
Excerpt: Prpf31^A216P/+ mice are a useful model for assessing the degeneration of the RPE. This model is characterized by an increase in the thickness of the Bruch membrane and accumulation of esterified cholesterol between said membrane and the RPE produced by a defect in the splicing of the mRNA of relevant genes of the visual cycle, such as RPE65 and RDH12. The accumulation of toxic products derived from retinol leads to an increase in ROS, infiltration of macrophages, and primary degeneration of the RPE. The degeneration of the RPE occurs late, at approximately 8 months of age. The phenotypic characteristics of this model can be exacerbated by exposure to intense light and are characterized primarily by accumulation of pseudo-drusenoid lesions and regions of atrophy observed in the fundus, with a loss of visual acuity and perception of contrast being observed, as well as a decrease in the amplitude of the c-wave of the ERG and a decrease in the thickness of the retina.
To evaluate the protective effect of the administration of our compounds in eye drops, we used heterozygous 6 month-old Prpf31^A216P/+ (KI) mice that were treated topically with 20 μl of the studied compounds applied directly on the corneal surface daily (L-V) for two and a half months. The compounds used were RES and compound 2, which were diluted in a solution of 13% hydroxypropyl-beta-cyclodextrin (CYCLO) in order to obtain a final concentration of 2 mM of each compound. After two and a half months of application of the eye drops with CICLO, RES, or compound 2, the mutant KI mice were exposed to a light source of 5,000 lux for 3 hours. Normal (WT) and KI mice were also exposed to intense light as test control without receiving any treatment. Subsequently, the fundus of the animals was evaluated, in addition to the visual acuity by means of the optomotor test, the thickness of the retina by means of optical coherence tomography (OCT), and the amplitude of the c-wave by ERG.
Two categories were used to quantify the macroscopic characteristics of the fundus: abnormal and normal fundus. The fundi categorized as abnormal were those in which the presence of autofluorescent pseudo-drusenoid lesions was observed (FIG. 11; arrows) or with regions of focal atrophy (FIG. 11; arrowheads). The percentage of abnormal fundi in the WT mice exposed to light (WT control) was 20%, and in the untreated KI (KI control) it was 90%. Meanwhile, this percentage was reduced to 30% in mice treated with compound 2 (KI 2) and only to 60% in both mice treated with CYCLE (KI CYCLE) and RES (KI RES) (table 1). […] These values were similar to those observed when comparing WT control and KI control (chi-square=7.35, P<0.01, Fisher's exact test P<0.05) and with a probability of obtaining a normal fundus in the WT control group of eight times greater than in the control KI (normal RR=8; IC95%=1.184-54.043).
To evaluate the thickness of the retina in vivo, a Stratus OCT (Zeiss) was used with a scanner adjusted to 6 lines of 3.45 mm each arranged radially. Six measurements were performed in each eye, upon which the retinal map was prepared (FIG. 12) with the thickness of the retina quantified from the ganglion cell layer to the RPE.
To evaluate the functional integrity of the RPE, the amplitude of the c-wave in the ERG was measured. The c-wave is defined as a positive slow wave that appears after the b-wave and is used to measure the functional integrity of the RPE. Since the amplitude of this wave can be affected by the integrity of the photoreceptors, it is best to normalize the results with the amplitude of the b-wave, for which reason a quantification was performed of the proportion of the amplitude of the c-wave between the amplitude of the b-wave (c-/b-wave ratio) (FIG. 13). […]

[4] = KI mice, 2 mM eye drops, light damage

Row | Compound | IL-6 in culture medium ([1]; ELISA) | TNF-α in culture medium ([1]; ELISA) | NO in culture medium ([1]; Griess reagent) | LC50 [2] [µM] | Fundus Normal (%) ([3]; KI mice) | Fundus Abnormal (number) ([3]; KI mice) | Fundus Normal (number) ([3]; KI mice) | autofluorescent pseudo-drusenoid lesions and regions of focal atrophy in the fundus [3, 4] | number of positive responses in optomotor test (visual acuity) [3, 4] | thickness of the retina (OCT) [3, 4] | statistical association with normal fundi vs control KI group [3] | Fundus Abnormal (%) ([3]; KI mice) | Fundus Abnormal (%) ([3]; KI mice, listed as compound 2) | c-/b-wave ratio (ERG) [3, 4] | autofluorescent pseudo-drusenoid lesions and regions of focal atrophy in the fundus ([3]; KI mice, 2 mM eye drops, light damage, listed as compound 2) | RR normal (probability of normal fundus vs. KI control) ([3]; vs KI control, IC95% = 1.044-46.949)
1 | Oc1ccc(C=Cc2cc(O)cc(O)c2)cc1 [RES, resveratrol, reference compound] | significantly decreases | significantly decreases | significantly decreases | < 1000 | (40) % | 6 | 4 | areas with autofluorescent punctiform yellow-white lesions (arrows) were observed | only significant at 0.194 cycles/degree | significantly greater | no statistically significant association |  |  |  |  | 
2 | CCCCCCCC(=O)OCC1OC(Oc2cc(O)cc(/C=C/c3ccc(O)cc3)c2)C(O)C(O)C1O [Compound 2, trans-resveratrol-3-O-(6′-O-octanoyl)-β-D-glucopyranoside] | similarly |  |  | < 140 | (70)* % | 3 | 7 | this type of lesion was not observed | significantly higher | significantly greater | statistically significant relationship | (30) % | 30 | significantly higher | prevented the formation | 7
